The source of these data is patent publication US10106501B2, “Nuclear receptor modulators” (AbbVie Inc., priority 2015, dated 2018).

This test deals with T1, chimeric human RORγ-Gal4 receptor (Homo sapiens, UniProt P51449).
T1 sequence (P51449 269-508 limits assumed): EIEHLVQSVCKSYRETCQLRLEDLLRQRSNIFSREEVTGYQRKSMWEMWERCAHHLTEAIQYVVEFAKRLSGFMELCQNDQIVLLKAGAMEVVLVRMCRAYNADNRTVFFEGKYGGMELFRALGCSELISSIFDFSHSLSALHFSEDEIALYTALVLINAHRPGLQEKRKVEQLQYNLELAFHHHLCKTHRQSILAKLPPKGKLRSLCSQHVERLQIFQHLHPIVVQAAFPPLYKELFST
The test can be described thus: transient transactivation assay (RORγ-Gal4 luciferase reporter). Format: cell-based. As to conditions: Cos-7 cells transfected with RORγ-Gal4 and 5Gal4 pGL3 TK Luc reporter; overnight incubation; T0901317 at 10^-5 M as reference; read-out: IC50.

The structures appear in SMILES notation.

`Cc1cn(C(=O)c2c(Cl)ccc(C(=O)N3CCC(CC(=O)O)CC3)c2Cl)c2c(C)cc(OC(F)(F)F)cc12` [EH, 2-[1-[2,4-dichloro-3-[3,7-dimethyl-5-(trifluoromethoxy)indole-1-carbonyl]benzoyl]-4-piperidyl]acetic acid]: the IC50 was below 100 nM.
The figure for `Cc1cn(C(=O)c2c(Cl)ccc(C(=O)N3CCC(C(=O)O)CC3)c2Cl)c2c(C)cc(OC(F)(F)F)cc12` [EH-1] is 100 to 500 nM; for `O=C(O)CC1CCN(C(=O)c2ccc(Cl)c(Cn3ccc4cc(OC(F)(F)F)ccc43)c2Cl)CC1` [EI, 2-(1-(2,4-dichloro-3-((5-(trifluoromethoxy)-1H-indol-1-yl)methyl)benzoyl)piperidin-4-yl)acetic acid] it is below 100 nM.
As to `CC(C)c1ccc2c(ccn2Cc2c(Cl)ccc(C(=O)N3CCC(CC(=O)O)CC3)c2Cl)c1` [EI-1], the IC50 was below 100 nM.
For `CSc1ccc2c(ccn2Cc2c(Cl)ccc(C(=O)N3CCC(CC(=O)O)CC3)c2Cl)c1` [EI-2] the value was below 100 nM; for `O=C(O)CC1CCN(C(=O)c2ccc(Cl)c(Cn3ccc4cccc(Cl)c43)c2Cl)CC1` [EI-3], below 100 nM; for `O=C(O)CC1CCN(C(=O)c2ccc(Cl)c(Cn3ccc4cc(C(F)(F)F)ccc43)c2Cl)CC1` [EI-4], below 100 nM.
For `O=C(O)CC1CCN(C(=O)c2ccc(Cl)c(Cn3ccc4cc(C(F)(F)F)cc(Cl)c43)c2Cl)CC1` [EI-5] the value was below 100 nM; for `O=C(O)CC1CCN(C(=O)c2ccc(Cl)c(Cn3ccc4c(C(F)(F)F)cccc43)c2Cl)CC1` [EI-7], below 100 nM.
Regarding `Cc1cc(OC(F)(F)F)cc2ccn(Cc3c(Cl)ccc(C(=O)N4CCC(CCC(=O)O)CC4)c3Cl)c12` [EJ-2], the IC50 was below 100 nM.
The figure for `Cc1ccc(C(=O)N2CCC(CC(=O)O)CC2)c(C)c1Cn1ccc2cc(OC(F)(F)F)cc(C)c21` [EK, 2-(1-(2,4-dimethyl-3-((7-methyl-5-(trifluoromethoxy)-1H-indol-1-yl)methyl)benzoyl)piperidin-4-yl)acetic acid] is below 100 nM; for `Cc1cc(OC(F)(F)F)cc2ccn(C(=O)c3c(Cl)ccc(C(=O)N4CCC(CC(=O)O)CC4)c3Cl)c12` [EL, 2-(1-(2,4-dichloro-3-(7-methyl-5-(trifluoromethoxy)-1H-indole-1-carbonyl)benzoyl)piperidin-4-yl)acetic acid] it is below 100 nM.
The figure for `Cc1cc(OC(F)(F)F)cc2ccn(C(=O)c3c(Cl)ccc(C(=O)N4CC5(CC(CC(=O)O)C5)C4)c3Cl)c12` [EL-1] is below 100 nM; for `Cc1cc(OC(F)F)cc2ccn(Cc3c(Cl)ccc(C(=O)N4CCC(CC(=O)O)CC4)c3Cl)c12` [EM, 2-(1-(2,4-dichloro-3-((5-(difluoromethoxy)-7-methyl-1H-indol-1-yl)methyl)benzoyl)piperidin-4-yl)acetic acid] it is below 100 nM.
Consider `O=C(O)CC1CCN(C(=O)c2ccc(Cl)c(Cn3ccc4cc(C5CC5)cc(F)c43)c2Cl)CC1` [EN, 2-(1-(2,4-dichloro-3-((5-cyclopropyl-7-fluoro-1H-indol-1-yl)methyl)benzoyl)piperidin-4-yl)acetic acid], for which the concentration for half-maximal inhibition (IC50) is below 100 nM.
For `O=C(O)CC1CCN(C(=O)c2ccc(Cl)c(C(=O)n3ccc4cc(C5CC5)cc(F)c43)c2Cl)CC1` [EO, 2-(1-(2,4-dichloro-3-(5-cyclopropyl-7-fluoro-1H-indole-1-carbonyl)benzoyl)piperidin-4-yl)acetic acid] the value was below 100 nM.
The figure for `O=C(O)CC1CCN(C(=O)c2ccc(Cl)c(Cn3ccc4cc(C(F)(F)F)cc(F)c43)c2Cl)CC1` [EP, 2-(1-(2,4-dichloro-3-((7-fluoro-5-(trifluoromethyl)-1H-indol-1-yl)methyl)benzoyl)piperidin-4-yl)acetic acid] is below 100 nM; for `Cc1cn(C(=O)c2c(Cl)ncc(C(=O)N3CCC(CC(=O)O)CC3)c2Cl)c2c(C)cc(C(F)(F)F)cc12` [EQ, 2-(1-(4,6-dichloro-5-(3,7-dimethyl-5-(trifluoromethyl)-1H-indole-1-carbonyl)nicotinoyl)piperidin-4-yl)acetic acid] it is below 100 nM.
The figure for `Cc1cn(Cc2c(Cl)ncc(C(=O)N3CCC(CC(=O)O)CC3)c2Cl)c2c(C)cc(C(F)(F)F)cc12` [ER, 2-(1-(4,6-dichloro-5-((3,7-dimethyl-5-(trifluoromethyl)-1H-indol-1-yl)methyl)nicotinoyl)piperidin-4-yl)acetic acid] is below 100 nM; for `Cc1cc(C(F)(F)F)cc2ccn(C(=O)c3c(Cl)ccc(C(=O)N4CCC(CC(=O)O)CC4)c3Cl)c12` [ES, 2-(1-(2,4-dichloro-3-(7-methyl-5-(trifluoromethyl)-1H-indole-1-carbonyl)benzoyl)piperidin-4-yl)acetic acid] it is below 100 nM.
`Cc1cn(Cc2c(Cl)ccc(C(=O)N3CCOCC3)c2Cl)c2c(C)nc(C(F)(F)F)cc12` [ET, (2,4-dichloro-3-((3,7-dimethyl-5-(trifluoromethyl)-1H-pyrrolo[2,3-c]pyridin-1-yl)methyl)phenyl)(morpholino)methanone]: the IC50 is below 100 nM.
For `Cc1cn(C(=O)c2c(Cl)ccc(C(=O)N3CCC(CC(=O)O)CC3)c2Cl)c2c(C)nc(C(F)(F)F)cc12` [EV, 2-(1-(2,4-dichloro-3-(3,7-dimethyl-5-(trifluoromethyl)-1H-pyrrolo[2,3-c]pyridine-1-carbonyl)benzoyl)piperidin-4-yl)acetic acid] the value was below 100 nM; for `Cc1c(C#N)ccc2c1cc(Cc1c(Cl)ccc(C(=O)N3CCOCC3)c1Cl)n2C` [EX, 2-(2,6-dichloro-3-(morpholine-4-carbonyl)benzyl)-1,4-dimethyl-1H-indole-5-carbonitrile], below 100 nM; for `Cc1c(C#N)ccc2c1cc(Cc1c(Cl)ccc(C(=O)N3CCC(CC(=O)O)CC3)c1Cl)n2C` [EY, 2-(1-(2,4-dichloro-3-((5-cyano-1,4-dimethyl-1H-indol-2-yl)methyl)benzoyl)piperidin-4-yl)acetic acid], below 100 nM.
The figure for `Cn1c(Cc2c(Cl)ccc(C(=O)N3CCOCC3)c2Cl)cc2c(Cl)cc(Cl)cc21` [EZ, (2,4-dichloro-3-((4,6-dichloro-1-methyl-1H-indol-2-yl)methyl)phenyl)(morpholino)methanone] is below 100 nM.
For the molecule `Cc1cc(C(F)(F)F)cc2c1cc(Cc1c(Cl)ccc(C(=O)N3CCN(C4COC4)CC3)c1Cl)n2C` [Example A1, (2,4-dichloro-3-((1,4-dimethyl-6-(trifluoromethyl)-1H-indol-2-yl)methyl)phenyl)(4-(oxetan-3-yl)piperazin-1-yl)methanone], the IC50 was below 100 nM.
For `Cc1cc(C(F)(F)F)cc2c1cc(Cc1c(Cl)ccc(C(=O)N3CCC(S(C)(=O)=O)CC3)c1Cl)n2C` [Example A1-11] the value was below 100 nM; for `Cn1c(Cc2c(Cl)ccc(C(=O)N3CCOCC3)c2Cl)cc2cc(C#N)ccc21` [Example AB, 2-(2,6-dichloro-3-(morpholine-4-carbonyl)benzyl)-1-methyl-1H-indole-5-carbonitrile], 100 to 500 nM.
The figure for `Cn1c(Cc2c(Cl)ccc(C(=O)N3CCOCC3)c2Cl)cc2ccc(C#N)cc21` [Example AC, 2-(2,6-dichloro-3-(morpholine-4-carbonyl)benzyl)-1-methyl-1H-indole-6-carbonitrile] is 100 to 500 nM; for `Cc1cc(C#N)cc2c1cc(C(=O)c1c(Cl)ccc(C(=O)N3CCOCC3)c1Cl)n2C` [Example AD, 2-(2,6-dichloro-3-(morpholine-4-carbonyl)benzoyl)-1,4-dimethyl-1H-indole-6-carbonitrile] it is 100 to 500 nM; for `Cc1ccc(C(=O)N2CCOCC2)c(C)c1Cc1cc2c(C)cc(C#N)cc2n1C` [Example AE, 2-(2,6-dimethyl-3-(morpholine-4-carbonyl)benzyl)-1,4-dimethyl-1H-indole-6-carbonitrile] it is 100 to 500 nM.
Turning to `Cc1cc(C#N)cc2c1cc(Cc1c(Cl)ccc(O[C@H]3CC[C@@H](C(=O)O)CC3)c1Cl)n2C` [Example AF1, cis-4-(2,4-dichloro-3-((6-cyano-1,4-dimethyl-1H-indol-2-yl)methyl)phenoxy)cyclohexanecarboxylic acid], the IC50 was 500 to 1000 nM.
For `Cc1cc(C#N)cc2c1cc(Cc1c(Cl)ccc(O[C@H]3CC[C@H](C(=O)O)CC3)c1Cl)n2C` [Example AF, trans-4-(2,4-dichloro-3-((6-cyano-1,4-dimethyl-1H-indol-2-yl)methyl)phenoxy)cyclohexanecarboxylic acid] the value was 100 to 500 nM.
The figure for `Cc1cc(C#N)cc2c1cc(Cc1c(Cl)ccc(O[C@H]3C[C@@H](C(=O)O)C3)c1Cl)n2C` [Example AH1, cis-3-(2,4-dichloro-3-((6-cyano-1,4-dimethyl-1H-indol-2-yl)methyl)phenoxy)cyclobutanecarboxylic acid] is 500 to 1000 nM.
For `Cc1cc(C#N)cc2c1cc(Cc1c(Cl)ccc(O[C@H]3C[C@H](C(=O)O)C3)c1Cl)n2C` [Example AH, trans-3-(2,4-dichloro-3-((6-cyano-1,4-dimethyl-1H-indol-2-yl)methyl)phenoxy)cyclobutanecarboxylic acid] the value was 500 to 1000 nM; for `Cc1cc(C#N)cc2c1cc(Cc1c(Cl)ccc(C(=O)N3CCC(OCC(=O)O)CC3)c1Cl)n2C` [Example AM, 2-((1-(2,4-dichloro-3-((6-cyano-1,4-dimethyl-1H-indol-2-yl)methyl)benzoyl)piperidin-4-yl)oxy)acetic acid], 1000 to 10000 nM.
Consider `Cc1cc(C#N)cc2c1cc(C(=O)c1c(Cl)ccc(C(=O)N3CCC(O)CC3)c1Cl)n2C` [Example AN, 2-(2,6-dichloro-3-(4-hydroxypiperidine-1-carbonyl)benzoyl)-1,4-dimethyl-1H-indole-6-carbonitrile], for which the IC50 was below 100 nM.
